Measurements as given in ChEMBL document CHEMBL1137346, “Carbonic anhydrase inhibitors: clash with Ala65 as a means for designing inhibitors with low affinity for the ubiquitous isozyme II, exemplified by the crystal structure of the topiramate sulfamide analogue” (J Med Chem, 2006).

What was measured:
Carbonic anhydrase 4 = Carbonic anhydrase 4 (Homo sapiens, UniProt P22748)
[1] = molecular target: Carbonic anhydrase 5A, mitochondrial (Homo sapiens, UniProt P35218)
[2] = molecular target: Carbonic anhydrase 5B, mitochondrial (Homo sapiens, UniProt Q9Y2D0)
Carbonic anhydrase 5B, mitochondrial, sequence (Q9Y2D0 whole entry): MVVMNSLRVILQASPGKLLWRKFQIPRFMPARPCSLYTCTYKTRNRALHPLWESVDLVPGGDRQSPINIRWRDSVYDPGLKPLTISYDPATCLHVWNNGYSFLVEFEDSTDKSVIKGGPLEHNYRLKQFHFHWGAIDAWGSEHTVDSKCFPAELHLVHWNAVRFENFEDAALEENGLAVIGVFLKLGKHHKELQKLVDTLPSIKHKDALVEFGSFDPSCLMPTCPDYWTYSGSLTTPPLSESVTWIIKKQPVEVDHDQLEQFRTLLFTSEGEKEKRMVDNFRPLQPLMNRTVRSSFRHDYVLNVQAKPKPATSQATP

Carbonic anhydrase 7 = Carbonic anhydrase 7 (Homo sapiens, UniProt P43166)
Carbonic anhydrase 7, sequence (P43166 whole entry): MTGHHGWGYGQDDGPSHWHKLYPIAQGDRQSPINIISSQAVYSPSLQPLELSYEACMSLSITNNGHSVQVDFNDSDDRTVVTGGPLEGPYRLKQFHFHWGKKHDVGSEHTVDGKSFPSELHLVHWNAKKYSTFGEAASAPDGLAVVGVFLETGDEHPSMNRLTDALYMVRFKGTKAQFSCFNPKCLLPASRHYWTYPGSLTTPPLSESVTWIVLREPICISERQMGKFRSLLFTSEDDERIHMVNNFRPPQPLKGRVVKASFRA

Carbonic anhydrase 13 = Carbonic anhydrase 13 (Mus musculus, UniProt Q9D6N1)
Carbonic anhydrase 13, sequence (Q9D6N1 whole entry): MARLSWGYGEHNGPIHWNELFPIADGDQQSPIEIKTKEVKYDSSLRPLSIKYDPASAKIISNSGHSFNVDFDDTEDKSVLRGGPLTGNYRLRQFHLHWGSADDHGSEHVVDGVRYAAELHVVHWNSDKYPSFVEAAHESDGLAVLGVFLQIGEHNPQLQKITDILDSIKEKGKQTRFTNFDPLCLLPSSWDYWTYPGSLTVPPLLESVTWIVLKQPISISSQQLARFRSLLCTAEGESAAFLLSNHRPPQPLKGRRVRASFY

Carbonic anhydrase 14 = Carbonic anhydrase 14 (Homo sapiens, UniProt Q9ULX7)
Carbonic anhydrase 14, sequence (Q9ULX7 whole entry): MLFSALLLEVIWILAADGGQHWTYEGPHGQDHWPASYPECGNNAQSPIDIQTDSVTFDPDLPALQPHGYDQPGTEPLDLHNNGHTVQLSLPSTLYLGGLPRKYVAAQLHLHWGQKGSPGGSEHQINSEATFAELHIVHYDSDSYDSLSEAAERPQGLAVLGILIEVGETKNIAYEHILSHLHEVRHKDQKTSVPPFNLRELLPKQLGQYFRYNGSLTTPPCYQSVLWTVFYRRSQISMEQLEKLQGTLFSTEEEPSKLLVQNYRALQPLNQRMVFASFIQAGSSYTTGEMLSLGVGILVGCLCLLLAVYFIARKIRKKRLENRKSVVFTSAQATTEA

Carbonic anhydrase 5A, mitochondrial, sequence (P35218 whole entry): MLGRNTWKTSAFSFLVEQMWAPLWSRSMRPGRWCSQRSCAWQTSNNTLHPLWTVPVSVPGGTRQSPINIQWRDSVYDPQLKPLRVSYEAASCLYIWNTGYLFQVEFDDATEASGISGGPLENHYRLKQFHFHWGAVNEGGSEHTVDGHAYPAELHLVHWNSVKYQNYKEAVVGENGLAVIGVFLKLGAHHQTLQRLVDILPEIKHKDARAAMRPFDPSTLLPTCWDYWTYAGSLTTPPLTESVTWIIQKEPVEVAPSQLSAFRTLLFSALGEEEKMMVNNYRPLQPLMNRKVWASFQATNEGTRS
Carbonic anhydrase 4, sequence (P22748 whole entry): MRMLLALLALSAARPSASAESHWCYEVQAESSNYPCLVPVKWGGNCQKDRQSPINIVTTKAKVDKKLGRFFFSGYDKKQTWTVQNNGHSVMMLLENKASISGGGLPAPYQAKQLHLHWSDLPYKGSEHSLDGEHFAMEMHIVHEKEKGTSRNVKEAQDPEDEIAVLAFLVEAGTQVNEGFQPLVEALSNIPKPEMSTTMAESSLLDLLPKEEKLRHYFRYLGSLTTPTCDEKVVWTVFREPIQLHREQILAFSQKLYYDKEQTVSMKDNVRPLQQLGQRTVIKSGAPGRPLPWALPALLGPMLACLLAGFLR

Compound: CC1(C)O[C@@H]2[C@@H](CO[C@@]3(CNS(N)(=O)=O)OC(C)(C)O[C@@H]23)O1
- Ki (Carbonic anhydrase 4): 941 nM
- Ki [1]: 32 nM
- Ki [2]: 21 nM
- Ki (Carbonic anhydrase 7): 35 nM
- Ki (Carbonic anhydrase 13): 30 nM
- Ki (Carbonic anhydrase 14): 25 nM
